Like-named read-outs stand apart in the source and are kept apart here.
Columns and labels:
[1] = system: LdAG83 promastigotes (wild type); assay: In vitro anti-promastigote activity, LdAG83; format: cell-based, Leishmania donovani; settings: read-out: Anti-promastigotes activity (IC50, μM) LdAG83
Procedure: (§1) Cell Lines and Cell Culture. Promastigotes of Leishmania donovani (wild type LdAG83, pentamidine-resistant LdAG83-PentR50, and SSG-resistant Ld39) and Leishmania major [MHOM/IL/67/JERICHO II (Lm50122), from ATCC] were used in this study.
(§2) In Vitro Anti-Promastigote Activity. The viability of promastigotes was determined by the Cell Titer 96° Aqueous Assay (Promega) that employs a tetrazolium compound (MTS, 2-(4,5-Dimethylthiazol-2-yl-)-5-[3-(carboxymethoxy)phenyl]-2-(4-sulfophenyl)-2H-tetrazolium) and electron coupling reagent, phenazine methosulfate (PMS).^7 Promastigotes were seeded into 96-well flat bottom microtiter plate at 1×10^5 cells per well in a final volume of 100 μL medium and incubated with a series concentration of synthetic flavonoid dimers or known antileishmanials. The parasites were incubated at 27° C. for 72 hrs. Fresh solution of 2 mg/mL MTS and 0.92 mg/mL PMS were prepared in a ratio of 20:1 (MTS:PMS). After 72 hrs incubation, 10 μL of MTS:PMS mixture was added into each well of microtiter plate. The plate was then incubated at 27° C. for 4 hrs for color development. After 4 hrs incubation, the OD values were determined at 490 nm using automatic microtiter plate reader (Bio-Rad).

[2] = system: Ld39 promastigotes (SSG-resistant); assay: In vitro anti-promastigote activity, Ld39; format: cell-based, Leishmania donovani; settings: read-out: Anti-promastigotes activity (IC50, μM) Ld39
Procedure: as §1, §2

[3] = system: LdAG83PentR50 promastigotes (pentamidine-resistant); assay: microbe, parasite or virus in culture; format: cell-based, Leishmania donovani; settings: 3 days at 27° C., MTS; read-out: Anti-promastigotes activity (IC50, μM) LdAG83PentR50
Procedure: as §1
No pentamidine or sodium stibogluconate was added to the L. donovani wild type (LdAG83) and L. major wild type (Lm50122). The mouse macrophage cell line, Raw264.7, was used for the determination of the relative toxicity of the compounds of the invention. […] They were maintained at 37° C. in a humidified atmosphere with 5% CO2. The cells were split constantly after a confluent monolayer has been formed. To split cells, the plate was washed briefly with PBS, treated with 0.05% trypsin-EDTA and harvested by centrifugation.
as §2

[4] = system: Lm50122 promastigotes; assay: In vitro anti-promastigote activity, Lm50122; format: cell-based, Leishmania major; settings: read-out: Anti-promastigotes activity (IC50, μM) Lm50122
Procedure: as §1, §2

[5] = system: Raw264.7 cells; assay: Cytotoxicity, mouse macrophage Raw264.7; format: cell-based
Procedure: (§3) (a) Mouse Macrophage Raw 264.7 and Primary Mouse PEM Cells. The cytotoxicity assay of reference antileishmanial compounds and the compounds of this invention was performed against mouse macrophage cell line, Raw 264.7 and primary mouse PEM cells in order to calculate the therapeutic index (IC50 value for cytotoxicity of the compounds divided by IC50 value for antileishmanial activity of the compounds). The cells were grown in supplemented DMEM media in an atmosphere of 95% air with 5% CO2 at 37° C. In brief, Raw264.7 cells and PEM cells were seeded into 96-well flat bottom microtiter plate at 1×10^4cells and 2×10^4 cells per well in a final volume of 100 μL media, respectively. A graded dose of flavonoid dimers or antileishmanials was added into wells. The plate was incubated at 37° C. for 72 hrs at the atmosphere 5% CO2 in the air. The % of survivors was determined.

[6] = system: PEM cells; assay: Cytotoxicity, primary mouse peritoneal elicited macrophage (PEM); format: cell-based
Procedure: as §3

[7] = system: Ld39 amastigotes; assay: In vitro anti-amastigote activity, Ld39 amastigotes in mouse PEM
Procedure: Peritoneal elicited macrophages (PEM) from mouse were obtained as previously described. A round cover slip (12 mm in diameter) was placed into each well of 24-well culture plate. Mouse macrophages were resuspended in supplemented DMEM media containing 10% heat inactivated fetal bovine serum (v/v), 100 U/mL penicillin and 100 μg/mL streptomycin and seeded into each well at a cell density of 1×10^5 cells per 500 μL. Macrophages were allowed to attach overnight and the non-adherent cells were removed by gentle washing twice with unsupplemented DMEM media. […] Non-internalized promastigotes were removed by washing with unsupplemented DMEM media for two times. Infected macrophages were further incubated in 500 μL supplemented DMEM media in the presence or absence of flavonoid dimers or known antileishmanials for 72 hrs at 37° C. After incubation, the cover slips were stained with Giemsa and the amastigotes inside each macrophage (100 macrophages per treatment) were counted under microscope. The percentage of macrophages infected and number of amastigotes per 100 macrophages was enumerated.
The % of infected macrophage and the number of amastigotes per 100 macrophages were counted by staining with Giemsa.

[8] = Tumor cell line cytotoxicity of flavonoid dimers, LCC6MDR; format: cell-based, human; settings: human, LCC6MDR cells, IC50 of compound alone
Procedure, shortened: (§4)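 LCC6, LCC6MDR and L929 cells seeded at 1×10^4 cells/well and exposed to graded doses of flavonoid dimers. Incubation 72 hrs at 37° C., 5% CO2. Read-out: % survivors.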

[9] = Tumor cell line cytotoxicity of flavonoid dimers, LCC6; format: cell-based, human; settings: human, LCC6 cells, IC50 of compound alone
Procedure, shortened: as §4

[10] = Cytotoxicity over LCC6, LCC6MDR and L929 cell lines; format: cell-based, human, mouse; settings: human, cancer lines LCC6, LCC6MDR and/or L929
Procedure: (b) Tumor Cell Line Cytotoxicity. The tumor cytotoxicity assays of flavonoid dimers were performed against LCC6, LCC6MDR and L929 cell lines. The cells were grown in supplemented DMEM media in an atmosphere of 95% air and 5% CO2 at 37° C. In brief, LCC6, LCC6MDR and L929 cells were seeded into 96-well flat bottom microtiter plate at 1×10^4 cells per well in a final volume of 100 μL media, respectively. A graded dose of flavonoid dimers was added into wells. The plate was incubated at 37° C. for 72 hrs at the atmosphere 5% CO2 in the air. The % of survivors was determined.

[11] = biological target: Pgp (LCC6MDR cells) (Homo sapiens, UniProt P08183); assay: Cell proliferation assay: Pgp-modulating activity, reversal of anticancer drug resistance in LCC6MDR cells; settings: for RF (Relative Fold), cpd at 0.5 μM: RF = (IC50 without modulator)/(IC50 with 0.5 μM modulator), paclitaxel; for RF (Relative Fold), cpd at 0.5 μM / EC50: LCC6MDR; for EC50: EC50 of compounds for reversing anticancer drug resistance (nM), Paclitaxel; for Therapeutic index: IC50 of compounds for L929/EC50 of compounds for lowering paclitaxel drug resistance
Sequence of Pgp (LCC6MDR cells) (P08183 whole entry): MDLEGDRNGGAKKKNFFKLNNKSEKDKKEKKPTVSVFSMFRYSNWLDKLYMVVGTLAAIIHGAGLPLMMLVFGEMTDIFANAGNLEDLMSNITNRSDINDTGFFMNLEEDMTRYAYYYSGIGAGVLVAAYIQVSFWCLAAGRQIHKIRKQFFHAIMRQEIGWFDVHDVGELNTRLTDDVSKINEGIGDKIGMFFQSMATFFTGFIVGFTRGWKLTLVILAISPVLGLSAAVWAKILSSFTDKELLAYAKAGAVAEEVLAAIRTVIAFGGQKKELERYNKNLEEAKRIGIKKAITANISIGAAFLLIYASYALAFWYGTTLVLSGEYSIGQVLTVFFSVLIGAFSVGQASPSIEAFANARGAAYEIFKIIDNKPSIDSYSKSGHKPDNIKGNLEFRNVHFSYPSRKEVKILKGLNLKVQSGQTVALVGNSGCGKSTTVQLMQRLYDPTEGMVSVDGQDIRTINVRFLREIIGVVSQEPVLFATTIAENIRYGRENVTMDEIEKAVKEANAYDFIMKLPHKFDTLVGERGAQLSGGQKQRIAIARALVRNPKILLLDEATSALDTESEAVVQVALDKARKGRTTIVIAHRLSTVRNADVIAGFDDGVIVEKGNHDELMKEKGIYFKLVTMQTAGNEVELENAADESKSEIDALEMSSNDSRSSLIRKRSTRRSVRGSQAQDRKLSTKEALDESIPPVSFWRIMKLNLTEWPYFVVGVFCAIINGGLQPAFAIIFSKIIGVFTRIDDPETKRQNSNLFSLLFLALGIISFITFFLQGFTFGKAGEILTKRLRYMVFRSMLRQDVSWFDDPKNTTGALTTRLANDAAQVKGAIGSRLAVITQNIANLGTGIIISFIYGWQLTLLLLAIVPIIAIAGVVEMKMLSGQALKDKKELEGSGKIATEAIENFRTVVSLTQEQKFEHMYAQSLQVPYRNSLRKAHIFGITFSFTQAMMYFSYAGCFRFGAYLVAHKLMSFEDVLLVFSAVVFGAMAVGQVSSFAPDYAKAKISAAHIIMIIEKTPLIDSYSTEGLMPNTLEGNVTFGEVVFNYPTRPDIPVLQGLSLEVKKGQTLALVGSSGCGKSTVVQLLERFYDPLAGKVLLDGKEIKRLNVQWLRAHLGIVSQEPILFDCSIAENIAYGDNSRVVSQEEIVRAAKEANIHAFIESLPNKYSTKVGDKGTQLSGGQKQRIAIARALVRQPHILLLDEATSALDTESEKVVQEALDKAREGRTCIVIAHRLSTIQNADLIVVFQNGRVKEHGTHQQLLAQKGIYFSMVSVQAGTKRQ
Procedure: Cell Proliferation Assay. 6,000 cells of LCC6 or LCC6MDR and anticancer drugs (paclitaxel, vinblastine, vincristine, doxorubicin and mitoxantrone) were mixed with or without modulators to a final volume of 200 μL in each well of 96-well plates. […] The plates were then incubated for 5 days at 37° C. […] IC50 values were calculated from the dose-response curves of MTS assays (Prism 4.0).

[12] = Cytotoxicity of flavonoid dimers, L929 mouse fibroblast; format: cell-based; settings: mouse, L929 fibroblast cells, IC50 of compound alone, 72 hrs, mouse fibroblast
Procedure, shortened: as §4

[13] = cytotoxicity, primary mouse macrophage, 72 hrs
[14] = mouse, LCC6MDR and L929 cell lines
[15] = Mus musculus, Macrophage, Table 7, cytotoxicity
[16] = Leishmania donovani, in Mus musculus, 72 h, read-out: Ld39 (IC50, mM)

Row | Compound | IC50 [6, 13] [µM] | IC50 at 72 h [8] [µM] | IC50 at 72 h [9] [µM] | RF (Relative Fold), cpd at 0.5 μM [11] | IC50 at 72 h [12] [µM] | IC50 at 72 h [10, 14] [µM] | also measured
1 | C[C@@H]1[C@H](O)[C@@H](C)/C=C/C=C/C=C/C=C/C=C/C=C/C=C/[C@H](O[C@@H]2O[C@H](C)[C@@H](O)[C@H](N)[C@@H]2O)C[C@@H]2O[C@](O)(C[C@@H](O)C[C@@H](O)[C@H](O)CC[C@@H](O)C[C@@H](O)CC(=O)O[C@H]1C)C[C@H](O)[C@H]2C(=O)O [Amphotericin B, amphotericin B, reference compound] | 7.4 | – | – | – | – | – | IC50 ([1]; 3 days at 27° C., MTS): 0.09 ± 0.02 µM; IC50 ([2]; 3 days at 27° C., MTS): 0.095 ± 0.02 µM; IC50 [3]: 0.051 µM; IC50 ([4]; 3 days at 27° C., MTS): 0.34 ± 0.06 µM; IC50 ([5]; 72 hrs): 12 µM; IC50 ([7]; read-out: IC50 against Ld39 amastigotes): 0.062 µM
2 | COc1cccc2oc(-c3ccc(OCCOCCN(CCOCCOc4ccc(-c5cc(=O)c6c(OC)cccc6o5)cc4)C(=O)OC(C)(C)C)cc3)cc(=O)c12 [Compound 16d, 1,13-Bis[4′-((5-methoxy)-4H-chromen-4-on-2-yl)phenyl]-7-(tert-butyloxycarbonyl)-1,4,10,13-tetraoxa-7-azamidecane] | – | 5.4 ± 0.5 | 4.6 ± 0.2 | (14.9) | – | – | IC50 at 72 h [10]: < 8 µM
3 | COC(=O)c1ccc(CN(CCOCCOc2ccc(-c3cc(=O)c4ccccc4o3)cc2)CCOCCOc2ccc(-c3cc(=O)c4ccccc4o3)cc2)cc1 [Compound 20, 1,13-Bis[4′-(4H-chromen-4-on-2-yl)phenyl]-N-(4-methoxycarbonylbenzyl)-1,4,10,13-tetraoxa-7-azamidecane] | – | 64.8 ± 14.1 | 33.3 ± 10.8 | (2.1) | 11.4 ± 4.4 | – | IC50 ([1]; Leishmania donovani, 72 h): > 100 µM; IC50 ([2]; Leishmania donovani, 72 h): > 100 µM; IC50 ([4]; Leishmania major, 72 h): > 100 µM; IC50 ([5]; Mus musculus, RAW264.7, 72 h): 45.7 ± 19.1 µM
4 | O=C1c2ccccc2C(=O)N1CCN(CCOCCOc1ccc(-c2cc(=O)c3ccccc3o2)cc1)CCOCCOc1ccc(-c2cc(=O)c3ccccc3o2)cc1 [Compound 23c, 1,13-Bis[4′-(4H-chromen-4-on-2-yl)phenyl]-7-[2-(1,3-dioxo-1,3-dihydro-2H-isoindol-2-yl)ethyl]-1,4,10,13-tetraoxa-7-azamidecane] | – | 4.9 ± 0.1 | 8.6 ± 3.4 | (9.6) | 17 ± 4.3 | 4.9 to 8.6 | –
5 | O=c1cc(-c2ccc(OCCOCCN(CCOCCOc3ccc(-c4cc(=O)c5ccccc5o4)cc3)Cc3ccccc3F)cc2)oc2ccccc12 [Compound 36, 1,13-Bis[4′-(4H-chromen-4-on-2-yl)phenyl]-7-(2-fluorobenzyl)-1,4,10,13-tetraoxa-7-azamidecane] | – | > 100 | > 100 | – | > 100 | > 100 | melting point: 82 to 84 °C; EC50 [11]: 179 ± 44 nM; Therapeutic index [11]: >558.7
6 | O=c1cc(-c2ccc(OCCOCCN(CCOCCOc3ccc(-c4cc(=O)c5ccccc5o4)cc3)Cc3cccc(F)c3)cc2)oc2ccccc12 [Compound 37, 1,13-Bis[4′-(4H-chromen-4-on-2-yl)phenyl]-7-(3-fluorobenzyl)-1,4,10,13-tetraoxa-7-azamidecane] | – | > 100 | > 100 | – | > 87 | > 100 | melting point: 91 to 93 °C; EC50 [11]: 258 ± 103 nM; Therapeutic index [11]: >337.2
7 | O=c1cc(-c2ccc(OCCOCCN(CCOCCOc3ccc(-c4cc(=O)c5ccccc5o4)cc3)Cc3cc(F)c(F)c(F)c3)cc2)oc2ccccc12 [Compound 39, 1,13-Bis[4′-(4H-chromen-4-on-2-yl)phenyl]-7-(3,4,5-trifluorobenzyl)-1,4,10,13-tetraoxa-7-azamidecane] | – | > 100 | > 75 | – | > 100 | > 100 | –
8 | O=c1cc(-c2ccc(O)c(O)c2)oc2cc(O)cc(O)c12 [Luteolin, luteolin] | 77.7 ± 7.7 | – | – | – | – | – | IC50 [6, 15]: 77.7 ± 7.7 µM; IC50 [7, 16]: 7.7 ± 3.6 µM
9 | O=c1c(O)c(-c2ccc(O)c(O)c2)oc2cc(O)cc(O)c12 [Quercetin, quercetin] | > 100 | – | – | – | – | – | IC50 [6, 15]: > 100 µM; IC50 [7, 16]: 6 ± 1.1 µM

Source: patent publication US8980848B2, “Flavonoid dimers and their use” (The Hong Kong Polytechnic University, priority 2010, dated 2015)
